Experimental findings from patent publication US20170071203A1, “Active compound combinations having insecticidal properties” (BAYER CROPSCIENCE AKTIENGESELLSCHAFT, priority 2014, published 2017) are described below.

Common to all, as to format: in vivo
Assay [1] has as its system green peach aphid (Myzus persicae). Nature of the assay: Myzus persicae - spray test. From the text:
(§1) The expected activity for a given combination of two active compounds can be calculated according to S. R. Colby, Weeds 15 (1967), 20-22 as follows:
(§2) • X is the kill rate, expressed in % of the untreated control, when active compound A is applied at an application rate of m g/ha or at a concentration of m ppm, • Y is the kill rate, expressed in % of the untreated control, when active compound B is applied at an application rate of n g/ha or at a concentration of n ppm and • E is the kill rate, expressed in % of the untreated control, when active compounds A and B is applied at application rates of m and n g/ha or at a concentration of m and n ppm, then
(§3) If the observed insecticidal efficacy of the combination is higher than the one calculated as “E”, then the combination of the two compounds is more than additive, i.e., there is a synergistic effect.
(§4) To produce a suitable preparation of active compound, 1 part by weight of active compound is mixed with the stated amount of solvents and is diluted with water, containing an emulsifier concentration of 1000 ppm, to the desired concentration. To produce a suitable preparation of a spore suspension the spores are diluted with emulsifier containing water to the desired concentration. Further test concentrations are prepared by dilution with emulsifier containing water.
Chinese cabbage (Brassica pekinensis) leaf disks infected with all instars of the green peach aphid (Myzus persicae), are sprayed with a preparation of the active ingredient of the desired concentration.
After the specified period of time, mortality in % is determined 100% means all aphids have been killed; 0% means none of the aphids have been killed. The mortality values determined thus are recalculated using the Colby-formula (see sheet 1).

The test system of assay [2] is two spotted spidermite (Tetranychus urticae). Nature of the assay: Tetranychus urticae - spray test, OP-resistant.
Description: as §1, §2, §3, §4
French bean (Phaseolus vulgaris) leaf disks which are heavily infested with all stages of the two spotted spidermite (Tetranychus urticae), are sprayed with a preparation of the active ingredient of the desired concentration.
After the specified period of time, mortality in % is determined. 100% means all spider mites have been killed and 0% means none of the spider mites have been killed. The mortality values determined thus are recalculated using the Colby-formula (see sheet 1).

Assay [3] concerns mustard beetle larvae (Phaedon cochleariae). Nature of the assay: Phaedon cochleariae - spray test. The conditions noted are these: 20 g ai/ha.
Description: as §1, §2, §3
To produce a suitable preparation of active compound, 1 part by weight of active compound is mixed with the stated amount of solvents and is diluted with water, containing an emulsifier concentration of 1000 ppm, to the desired concentration. […]
After the specified period of time, mortality in % is determined 100% means all beetle larvae have been killed and 0% means none of the beetle larvae have been killed. The mortality values determined thus are recalculated using the Colby-formula (see sheet 1).

In assay [4] the test system is larvae of the cotton boll worm (Heliothis armigera). Nature of the assay: Heliothis armigera - spray test.
Description: as §1, §2, §3
To produce a suitable preparation of active compound, 1 part by weight of active compound is mixed with the stated amount of solvent and is diluted with water, containing an emulsifier concentration of 1000 ppm, to the desired concentration. Further test concentrations are prepared by dilution with emulsifier containing water Ammonium salt and/or penetration enhancer in a dosage of 1000 ppm are added to the desired concentration if necessary.
Cotton plants (Gossypium hirsutum) are treated by being sprayed with the preparation of the active compound of the desired concentration and are infested with larvae of the cotton boll worm (Heliothis armigera).
After the specified period of time, the mortality in % is determined 100% means all caterpillars have been killed; 0% means none of the caterpillars have been killed. The mortality values determined thus are recalculated using the Colby-formula (see sheet 1).

In the case of `CN/C(=N\[N+](=O)[O-])NCc1cnc(Cl)s1` [Clothianidin], in assay [1] (0.15 g ai/ha), the “Efficacy in % after 6d” value is 0%. In addition, the “Efficacy in % after 2d” value in assay [2] (4 g ai/ha) is recorded as 0%.

Regarding `CN1COCN(Cc2cnc(Cl)s2)/C1=N\[N+](=O)[O-]` [Thiamethoxam], the “Efficacy in % after 2d” value in assay [3] (after 2 d, Chinese cabbage leaf disks) was 0%. In addition, the “Efficacy in % after 6d” value in assay [3] (after 6 d) was 0%.

`O=[N+]([O-])NC1=NCCN1Cc1ccc(Cl)nc1` [Imidacloprid]: the “Efficacy in % after 2d” value is 0% in assay [2] (0.8 g ai/ha); 0% in assay [2] (4 g ai/ha); 70% in assay [4] (320 ppm, after 2 d). Moreover, the “Efficacy in % after 1d” value in assay [4] (80 ppm) turned out to be 0%; in assay [4] (160 ppm), 0%; in assay [4] (320 ppm), 30%.

Regarding `CN/C(=N/CC1CCOC1)N[N+](=O)[O-]` (stereo not drawn) [Dinotefuran], the “Efficacy in % after 6d” value came out at 0% in assay [1] (4.8 g ai/ha), 70% in assay [1] (9.6 g ai/ha) and 0% in assay [2] (4 g ai/ha). For the same molecule, the “Efficacy in % after 2d” value in assay [2] (20 g ai/ha) is on record as 0%.

As to `N#C/N=C1\SCCN1Cc1ccc(Cl)nc1` [Thiacloprid], the “Efficacy in % after 1d” value in assay [1] (0.8 g ai/ha, after 1 d) came out at 0%.

Regarding `CS(=O)(=O)NC(=O)c1cccc(-c2cnc(-c3cccnc3)s2)n1` [Thiazolamid (II-11)], in assay [2] (20 g ai/ha), the “Efficacy in % after 2d” value is listed as 0%.

As to `C/C(=N\C#N)N(C)Cc1ccc(Cl)nc1` [Acetamiprid], the “Efficacy in % after 6d” value in assay [1] (1.6 g ai/ha) turned out to be 70%; in assay [2] (0.8 g ai/ha), 0%.
